Test results published in patent US7572603B2, “Alpha-2 adrenergic receptor polymorphisms” (University of Cincinnati, priority 2000, dated 2009).
Positions count from the first letter of the chain named.

Legend:
wild-type alpha-2CAR [1] = biological target: T1, wild-type alpha-2CAR (Homo sapiens, UniProt P18825, L239R/R446P/S401I); details: 10 μM epinephrine vs 1 unit/ml thrombin
T1 sequence (P18825 1-462 L239R/S401I/R446P): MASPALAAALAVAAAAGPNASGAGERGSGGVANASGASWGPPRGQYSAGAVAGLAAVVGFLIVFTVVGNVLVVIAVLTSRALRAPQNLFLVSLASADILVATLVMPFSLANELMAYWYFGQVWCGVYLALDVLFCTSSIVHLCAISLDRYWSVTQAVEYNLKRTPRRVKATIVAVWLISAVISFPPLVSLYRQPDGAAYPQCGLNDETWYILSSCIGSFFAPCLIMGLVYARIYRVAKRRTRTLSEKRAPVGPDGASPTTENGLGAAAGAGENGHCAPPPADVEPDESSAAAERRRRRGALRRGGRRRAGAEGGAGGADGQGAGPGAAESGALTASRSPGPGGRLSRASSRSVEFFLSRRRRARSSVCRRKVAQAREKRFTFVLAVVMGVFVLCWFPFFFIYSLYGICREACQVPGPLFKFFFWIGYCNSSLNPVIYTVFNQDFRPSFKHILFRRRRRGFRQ

wild-type alpha-2CAR [2] = biological target: T1, wild-type alpha-2CAR; assay: Inhibition of forskolin-stimulated adenylyl cyclase, CHO cell membranes; assay type: biochemical; design: expressed in transfected cells; membranes or intact cells; details: for Max Inhibition (%) of adenylyl cyclase: CHO line expressing 1570 ± 79.9 fmol/mg
Excerpt: (§1) Reactions were terminated by the addition of a stop solution containing excess ATP and cAMP and —100,000 dpm of [3H]cAMP. Labeled cAMP was isolated by gravity chromatography over alumina columns with [3H]cAMP used to quantitate column recovery. […] Results are expressed as percent inhibition of forskolin stimulated activity.

wild-type alpha-2CAR [3] = biological target: T1, wild-type alpha-2CAR; details: epinephrine competition, absence of GTP
wild-type alpha-2CAR [4] = biological target: T1, wild-type alpha-2CAR; details: 10 μM epinephrine, 5 min; expression 806 fmol/mg
Lys251 alpha-2AAR [5] = biological target: T2, Lys251 alpha-2AAR (Homo sapiens, UniProt P08913, N266K); assay: [35S]GTPyS binding, COS-7 membranes coexpressing receptor and Gi alpha2; assay type: biochemical; design: expressed in transfected cells; membranes or intact cells; details: 10 μM agonist
T2 sequence (P08913 16-465 N266K): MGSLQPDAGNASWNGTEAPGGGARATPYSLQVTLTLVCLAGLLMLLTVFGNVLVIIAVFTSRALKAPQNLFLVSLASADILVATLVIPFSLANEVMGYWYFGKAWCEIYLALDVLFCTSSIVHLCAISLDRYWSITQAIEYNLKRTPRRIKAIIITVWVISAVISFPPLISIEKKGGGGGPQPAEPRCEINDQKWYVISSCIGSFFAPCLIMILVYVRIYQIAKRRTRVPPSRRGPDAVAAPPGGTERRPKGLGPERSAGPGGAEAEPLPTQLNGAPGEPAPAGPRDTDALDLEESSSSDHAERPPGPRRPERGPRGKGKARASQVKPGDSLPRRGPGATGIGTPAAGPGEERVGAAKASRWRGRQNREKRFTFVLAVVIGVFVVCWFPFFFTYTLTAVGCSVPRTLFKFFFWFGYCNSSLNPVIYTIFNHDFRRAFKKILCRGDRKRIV
Procedure: Nonspecific binding was measured in the presence of […] GTPyS.

wild-type alpha-2BAR [6] = biological target: T3, wild-type alpha-2BAR (Homo sapiens, UniProt P18089); assay: Inhibition of forskolin-stimulated adenylyl cyclase, CHO cell membranes, incl. desensitization; assay type: biochemical; design: The human receptor consists of 450 amino acids; expressed in transfected cells; membranes
T3 sequence (P18089 1-450): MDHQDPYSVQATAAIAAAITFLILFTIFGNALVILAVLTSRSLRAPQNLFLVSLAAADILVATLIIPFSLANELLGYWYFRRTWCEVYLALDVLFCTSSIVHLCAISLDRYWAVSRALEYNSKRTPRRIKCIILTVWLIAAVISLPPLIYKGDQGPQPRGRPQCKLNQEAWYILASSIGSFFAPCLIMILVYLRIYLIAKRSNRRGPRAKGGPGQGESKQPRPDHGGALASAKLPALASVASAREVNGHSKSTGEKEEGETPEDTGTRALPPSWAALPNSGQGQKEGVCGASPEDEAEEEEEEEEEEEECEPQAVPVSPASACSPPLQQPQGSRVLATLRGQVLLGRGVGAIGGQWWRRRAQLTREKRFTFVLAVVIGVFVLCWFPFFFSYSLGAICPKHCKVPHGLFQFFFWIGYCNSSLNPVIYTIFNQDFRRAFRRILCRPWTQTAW
Procedure: Alpha-2BAR inhibition of adenylyl cyclase was determined in membrane preparations from CHO cells stably expressing the two receptors using methods similar to those previously described (25). […] Reactions were terminated by the addition of a stop solution containing excess ATP and cAMP and -100,000 dpm of [3H]cAMP. Labeled cAMP was isolated by gravity chromatography over alumina columns with [3H]cAMP used to quantitate column recovery. Results are expressed as percent inhibition of forskolin stimulated activity.

wild-type alpha-2BAR [7] = biological target: T3, wild-type alpha-2BAR; assay type: cell-based; design: expressed in transfected cells; host or cells: COS-7, transient (DEAE-dextran), co-transfected with GRK2; details: 10 μM norepinephrine 15 minutes, GRK2 co-expressed
[8] = biological target: T4, wild-type Asn251 alpha-2AAR (Homo sapiens, UniProt P08913); details: expression 2360±263 fmol/mg
T4 sequence (P08913 16-465): T2 sequence (P08913 16-465 N266K) with K251N
Procedure: (§2) Alpha-2AAR inhibition of adenylyl cyclase was determined in membrane preparations from CHO cells stably expressing the two receptors using methods similar to those previously described (18). […] Reactions were terminated by the addition of a stop solution containing excess ATP and cAMP and —100,000 dpm of [3H]cAMP. Labeled cAMP was isolated by gravity chromatography over alumina columns with [3H]cAMP used to quantitate column recovery. […] Results are expressed as percent inhibition of forskolin stimulated activity.

Lys251 alpha-2AAR [9] = biological target: T2, Lys251 alpha-2AAR
Procedure: as §2

wild-type alpha-2CAR [10] = biological target: T5, wild-type alpha-2CAR (Homo sapiens, UniProt P18825); assay: Inhibition of forskolin-stimulated adenylyl cyclase, CHO cell membranes; assay type: biochemical; details: CHO line expressing 1570 ± 79.9 fmol/mg
T5 construct: expressed in transfected cells; membranes or intact cells
T5 sequence (P18825 1-462 L239R/S401I/R446P): T1 sequence (P18825 1-462 L239R/S401I/R446P)
Excerpt: as §1

Q: With `CNC[C@H](O)c1ccc(O)c(O)c1` [epinephrine] as the molecule, how does the “MAP kinase stimulation as a percent of the thrombin response” value (wild-type alpha-2CAR [1]) read?
A: Its value is 128.

Q: What about the “agonist-promoted inhibition of adenylyl cyclase” value (wild-type alpha-2CAR [2]; lower expressing line, 565 fmol/mg) of the same molecule?
A: The value was 73%.

Q: What about the “% RH (percentage of receptors in the high-affinity state)” value (wild-type alpha-2CAR [3]) of the same molecule?
A: The value was 42%.

Q: And the “stimulated accumulation of inositol phosphates over basal” value (wild-type alpha-2CAR [4])?
A: Its value is 3Q.

Q: How did the “enhanced [35S]GTPyS binding for the Lys251 receptor as compared to the Asn251 receptor” value (from here on “enhanced … compared to the Asn251 receptor”) (Lys251 alpha-2AAR [5]) turn out when `NC[C@H](O)c1ccc(O)c(O)c1` [norepinephrine] was run?
A: The value was ~40%.

Q: And the “Max Inhibition (%) of adenylyl cyclase” value (wild-type alpha-2CAR [2])?
A: The value was 76.6 ± 1.60%.

Q: And the Desensitization % (wild-type alpha-2BAR [6]; after 10 μM norepinephrine 30 min at 37° C.)?
A: The Desensitization % was ~54%.

Q: And the “Submax inhibition % Ctrl” value (wild-type alpha-2BAR [6]; at the EC50 of control membranes, cells pretreated with media alone)?
A: The value was 16.5±3.9%.

Q: And the “Max Inhibition of forskolin-stimulated adenylyl cyclase” value (wild-type alpha-2BAR [6]; receptor density 626±54 fmol/mg)?
A: The value was 28.5±1.6%.

Q: What about the “fold increase in receptor phosphorylation with agonist exposure” value (wild-type alpha-2BAR [7]) of the same molecule?
A: The value was 5.84±0.49 fold.

Q: `Brc1c(NC2=NCCN2)ccc2nccnc12` [UK 14304] was tested. Which “enhanced … compared to the Asn251 receptor” value (Lys251 alpha-2AAR [5]) did it give?
A: The value was ~40%.

Q: And the “Max Inhibition (%) of adenylyl cyclase” value (wild-type alpha-2CAR [2])?
A: The value was 67.6 ± 2.09%.

Q: What does the source list for `N=C(N)N/N=C/c1c(Cl)cccc1Cl` [guanabenz]?
A: enhanced [35S]GTPyS binding for the Lys251 receptor as compared to the Asn251 receptor (Lys251 alpha-2AAR [5]): 72%; Max Inhibition (%) of adenylyl cyclase (wild-type alpha-2CAR [2]): 53.8 ± 1.99%

Q: How did the “Maximal inhibition of forskolin-stimulated adenylyl cyclase” value [8] turn out when `Cc1cc(C(C)(C)C)c(O)c(C)c1CC1=NCCN1` [oxymetazoline] was run?
A: The value was 35±4.7%.

Q: What about the “augmented function (adenylyl cyclase inhibition) compared to the Asn251 receptor” value (Lys251 alpha-2AAR [9]; Lys251 vs Asn251) of the same molecule?
A: Its value is ~40%.

Q: What about the “Maximal inhibition of forskolin-stimulated adenylyl cyclase” value (Lys251 alpha-2AAR [9]; expression 2590±140 fmol/mg) of the same molecule?
A: The value was 50±6.6%.

Q: And the “Max Inhibition (%) of adenylyl cyclase” value (wild-type alpha-2CAR [2])?
A: The value was 27.0 ± 2.70%.

Q: With `Clc1cccc(Cl)c1N=C1NCCN1` [clonidine] as the molecule, how does the “Max Inhibition (%) of adenylyl cyclase” value (wild-type alpha-2CAR [2]) read?
A: Its value is 38.5 ± 2.44%.

Q: Which “enhanced … compared to the Asn251 receptor” value (Lys251 alpha-2AAR [5]) does the source give for `CCN1CCc2nc(N)oc2CC1` [BHT-933] here?
A: Its value is 45%.

Q: And the “Max Inhibition (%) of adenylyl cyclase” value (wild-type alpha-2CAR [2])?
A: Its value is 56.8 ± 1.41%.

Q: What about the EC50 (wild-type alpha-2CAR [10]) of the same molecule?
A: The EC50 was 5500 ± 2110 nM.
